Results: US9938261B2, “Heterocyclic compounds and methods of use thereof” (AMBIT BIOSCIENCES CORPORATION, priority 2011, dated 2018)
Where two headings read alike, the source gives them in different places.

What was measured:
[1] = system: M-NFS-60 cells; experiment: M-NFS-60 cell proliferation assay (Alamar Blue); type: cell-based, mouse; conditions: read-out: CSF1R M-NFS-60 CTB:IC50
Procedure, shortened: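 Alamar Blue reduction (3 h; 560/590 nm) measured viability after 72 h, 37 °C treatment with nine half-log compound concentrations at 0.5% DMSO. Cells: M-CSF-dependent (20 ng/mL) murine M-NFS-60 in RPMI plus 10% FBS. IC50s, averaged from duplicates, reflect half-maximal inhibition of proliferation relative to control.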

[2] = target: T1, CSF1R (Homo sapiens, UniProt P07333); experiment: HEK293 CSF1R phosphorylation MSD assay; type: cell-based; parameters: expressed in transfected cells; host or cells: HEK293; conditions: read-out: HEK293 pCSF1R M-CSF MSD:IC50
Procedure, shortened: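 Ligand-induced CSF1R autophosphorylation was measured by MSD sandwich assay: CSF1R-FKBP from lysates captured via FK506, anti-phosphotyrosine readout. Cells were exposed to compound for 2 h (9-point, half-log, 0.5% DMSO) before 5 min 50 ng/mL M-CSF. Reported IC50 is the mean of duplicate-plate IC50s relative to DMSO control.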

[3] = target: T2, KIT (Homo sapiens, UniProt P10721); experiment: Competition binding assay, KIT Kd
T2 construct: made in house
Procedure, shortened: (§1)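 Phage-fused or HEK-293/DNA-tagged kinase + ligand-coated streptavidin beads + compound, 1 h RT with shaking. Wash, elute with free ligand 30 min RT, qPCR of eluted kinase. Kd: 11-point 3-fold series.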

[4] = target: T1, CSF1R; experiment: Competition binding assay, CSF1R Kd; parameters: made in house
Procedure, shortened: as §1

[5] = target: T3, FLT3 (Homo sapiens, UniProt P36888); experiment: Competition binding assay, FLT3 Kd
T3 construct: made in house
T3 sequence (P36888 27-993): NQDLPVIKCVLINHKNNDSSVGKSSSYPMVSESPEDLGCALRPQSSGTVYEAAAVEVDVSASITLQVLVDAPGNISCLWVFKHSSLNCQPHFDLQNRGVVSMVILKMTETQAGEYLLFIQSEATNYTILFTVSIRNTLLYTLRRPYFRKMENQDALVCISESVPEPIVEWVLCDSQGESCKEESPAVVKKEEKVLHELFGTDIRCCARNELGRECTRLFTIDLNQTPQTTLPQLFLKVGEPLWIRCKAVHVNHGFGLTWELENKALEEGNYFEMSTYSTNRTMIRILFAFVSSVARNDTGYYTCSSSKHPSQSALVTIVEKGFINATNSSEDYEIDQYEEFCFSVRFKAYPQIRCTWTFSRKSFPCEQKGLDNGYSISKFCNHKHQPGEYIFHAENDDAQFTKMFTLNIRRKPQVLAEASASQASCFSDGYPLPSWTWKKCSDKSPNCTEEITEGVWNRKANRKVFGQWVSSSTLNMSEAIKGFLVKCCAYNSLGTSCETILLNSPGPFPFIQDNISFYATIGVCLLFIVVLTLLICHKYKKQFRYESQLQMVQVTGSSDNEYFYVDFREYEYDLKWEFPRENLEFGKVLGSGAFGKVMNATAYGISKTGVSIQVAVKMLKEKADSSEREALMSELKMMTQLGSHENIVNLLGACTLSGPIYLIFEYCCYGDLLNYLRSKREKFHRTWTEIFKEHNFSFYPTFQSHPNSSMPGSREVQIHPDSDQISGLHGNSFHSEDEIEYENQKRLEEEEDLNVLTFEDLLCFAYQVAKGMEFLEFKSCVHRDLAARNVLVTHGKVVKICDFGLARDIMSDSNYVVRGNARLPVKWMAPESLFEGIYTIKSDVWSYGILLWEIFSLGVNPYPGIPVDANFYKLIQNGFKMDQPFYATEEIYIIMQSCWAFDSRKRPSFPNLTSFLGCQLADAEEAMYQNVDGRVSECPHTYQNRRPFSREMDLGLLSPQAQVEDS
Procedure, shortened: as §1

[6] = target: T4, PDGFRβ (Homo sapiens, UniProt P09619); experiment: Competition binding assay, PDGFRβ Kd
T4 construct: made in house
Procedure, shortened: as §1

[7] = Mus musculus, M-NFS-60 cell proliferation
[8] = HEK293 cells, M-CSF stimulated CSF1R phosphorylation, MSD

T2 sequence (P10721 26-976): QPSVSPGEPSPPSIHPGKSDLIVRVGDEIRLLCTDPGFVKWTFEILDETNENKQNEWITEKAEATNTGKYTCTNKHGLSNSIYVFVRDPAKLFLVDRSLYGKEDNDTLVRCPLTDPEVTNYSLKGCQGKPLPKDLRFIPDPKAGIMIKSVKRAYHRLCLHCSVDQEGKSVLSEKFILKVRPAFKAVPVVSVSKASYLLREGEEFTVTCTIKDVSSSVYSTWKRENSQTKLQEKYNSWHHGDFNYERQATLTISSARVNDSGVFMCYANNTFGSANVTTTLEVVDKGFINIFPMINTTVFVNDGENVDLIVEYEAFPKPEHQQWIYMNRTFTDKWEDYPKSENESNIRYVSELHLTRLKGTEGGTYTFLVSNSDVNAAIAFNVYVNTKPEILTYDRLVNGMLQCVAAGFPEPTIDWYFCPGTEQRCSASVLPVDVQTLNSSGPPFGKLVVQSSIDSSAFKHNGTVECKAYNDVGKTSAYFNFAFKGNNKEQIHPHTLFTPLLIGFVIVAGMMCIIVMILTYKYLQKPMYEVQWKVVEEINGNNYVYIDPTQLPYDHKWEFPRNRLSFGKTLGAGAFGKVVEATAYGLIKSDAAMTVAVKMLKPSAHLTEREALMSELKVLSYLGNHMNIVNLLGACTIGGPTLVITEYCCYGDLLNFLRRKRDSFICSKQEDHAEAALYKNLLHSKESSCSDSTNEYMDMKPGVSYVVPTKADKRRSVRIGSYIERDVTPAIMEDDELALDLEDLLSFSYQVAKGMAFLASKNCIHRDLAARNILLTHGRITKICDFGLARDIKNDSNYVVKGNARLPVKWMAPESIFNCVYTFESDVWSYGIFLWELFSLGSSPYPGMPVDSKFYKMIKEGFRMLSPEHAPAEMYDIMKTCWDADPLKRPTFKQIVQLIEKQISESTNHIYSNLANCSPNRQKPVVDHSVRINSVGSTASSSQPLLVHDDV
T4 sequence (P09619 33-1106): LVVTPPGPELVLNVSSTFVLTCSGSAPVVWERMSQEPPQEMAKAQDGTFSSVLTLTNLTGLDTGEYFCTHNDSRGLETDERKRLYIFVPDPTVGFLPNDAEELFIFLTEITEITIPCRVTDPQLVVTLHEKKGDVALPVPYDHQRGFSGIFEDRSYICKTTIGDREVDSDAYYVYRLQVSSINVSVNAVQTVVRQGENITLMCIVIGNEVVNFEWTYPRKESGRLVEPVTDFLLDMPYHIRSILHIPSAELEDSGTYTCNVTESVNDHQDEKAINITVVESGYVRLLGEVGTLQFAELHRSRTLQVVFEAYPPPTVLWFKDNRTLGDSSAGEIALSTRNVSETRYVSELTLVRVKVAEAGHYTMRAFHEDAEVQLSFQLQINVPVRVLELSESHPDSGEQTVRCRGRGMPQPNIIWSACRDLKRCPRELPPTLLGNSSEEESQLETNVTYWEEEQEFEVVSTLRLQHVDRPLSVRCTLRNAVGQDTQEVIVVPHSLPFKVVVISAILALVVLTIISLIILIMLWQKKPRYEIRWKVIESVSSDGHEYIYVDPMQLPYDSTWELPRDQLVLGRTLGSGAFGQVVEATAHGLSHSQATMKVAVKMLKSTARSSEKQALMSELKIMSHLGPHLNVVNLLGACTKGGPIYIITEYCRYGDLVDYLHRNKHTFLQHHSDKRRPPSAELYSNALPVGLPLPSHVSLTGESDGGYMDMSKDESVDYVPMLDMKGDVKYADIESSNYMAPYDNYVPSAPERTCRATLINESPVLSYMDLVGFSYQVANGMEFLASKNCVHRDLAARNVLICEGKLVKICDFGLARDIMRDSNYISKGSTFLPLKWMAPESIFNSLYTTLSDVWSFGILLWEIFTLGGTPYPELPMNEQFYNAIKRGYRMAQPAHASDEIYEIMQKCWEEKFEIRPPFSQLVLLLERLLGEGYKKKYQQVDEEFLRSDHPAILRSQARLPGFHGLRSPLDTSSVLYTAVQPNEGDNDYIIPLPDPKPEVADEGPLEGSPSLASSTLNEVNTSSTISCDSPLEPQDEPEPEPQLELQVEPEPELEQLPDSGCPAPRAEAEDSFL
T1 sequence (P07333 20-972): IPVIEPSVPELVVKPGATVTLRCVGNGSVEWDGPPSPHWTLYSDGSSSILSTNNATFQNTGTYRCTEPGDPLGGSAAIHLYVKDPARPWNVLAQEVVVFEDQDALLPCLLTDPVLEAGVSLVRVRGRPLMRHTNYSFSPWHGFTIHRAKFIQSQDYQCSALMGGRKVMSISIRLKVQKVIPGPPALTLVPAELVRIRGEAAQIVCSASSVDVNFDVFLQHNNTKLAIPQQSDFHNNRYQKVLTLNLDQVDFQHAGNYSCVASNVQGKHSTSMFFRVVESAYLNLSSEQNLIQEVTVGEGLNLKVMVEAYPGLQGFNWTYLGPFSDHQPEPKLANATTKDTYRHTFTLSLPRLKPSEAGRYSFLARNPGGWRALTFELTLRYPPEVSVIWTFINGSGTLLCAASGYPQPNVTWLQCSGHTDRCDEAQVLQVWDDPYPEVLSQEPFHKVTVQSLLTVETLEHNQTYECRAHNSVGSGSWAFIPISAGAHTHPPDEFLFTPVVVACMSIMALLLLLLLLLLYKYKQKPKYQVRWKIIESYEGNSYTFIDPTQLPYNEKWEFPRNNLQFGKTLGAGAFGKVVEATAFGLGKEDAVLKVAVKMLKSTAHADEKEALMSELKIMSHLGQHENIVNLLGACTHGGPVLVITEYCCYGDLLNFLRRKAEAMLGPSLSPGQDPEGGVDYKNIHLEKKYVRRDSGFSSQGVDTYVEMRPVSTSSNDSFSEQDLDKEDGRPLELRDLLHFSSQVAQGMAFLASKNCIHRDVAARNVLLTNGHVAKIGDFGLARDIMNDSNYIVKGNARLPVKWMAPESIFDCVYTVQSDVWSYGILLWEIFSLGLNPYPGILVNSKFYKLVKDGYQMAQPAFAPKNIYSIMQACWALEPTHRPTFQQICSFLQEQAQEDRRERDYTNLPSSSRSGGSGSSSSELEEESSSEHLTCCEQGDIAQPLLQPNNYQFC

Compound	IC50 [1, 7] [nM]	IC50 [2, 8] [nM]	Kd ([3]; competition binding) [nM]	Kd ([4]; competition binding) [nM]	Kd ([5]; competition binding) [nM]	Kd ([6]; competition binding) [nM]	IC50 ([1]; 72 hours incubation, M-CSF 20 ng/mL) [nM]	IC50 ([2]; 2 h compound, human M-CSF 50 ng/mL for 5 min) [nM]	Kd [3] [nM]	Kd [4] [nM]	Kd [5] [nM]	Kd [6] [nM]
OCCOc1ccn2c(Cc3ccc4nc(N[C@@H]5CCCC[C@H]5O)sc4c3)cnc2c1 [Example 135, (1R,2R)-2-((6-((7-(2-hydroxyethoxy)imidazo[1,2-a]pyridin-3-yl)methyl)benzo[d]thiazol-2-yl)amino)cyclohexanol]	50 to 400	50 to 200	500 to 2000	5 to 20	> 5000	500 to 2000	–	–	–	–	–	–
O[C@@H]1CCCC[C@H]1Nc1nc2ccc(Cn3cnc4cc(C5=CCOCC5)ccc43)cc2s1 [Example 174, (1R,2R)-2-((6-((5-(3,6-dihydro-2H-pyran-4-yl)-1H-benzo[d]imidazol-1-yl)methyl)benzo[d]thiazol-2-yl)amino)cyclohexanol]	≤ 50	≤ 50	≤ 100	≤ 5	≤ 200	≤ 50	–	–	–	–	–	–
COc1ccccc1Nc1nc2ccc(Cn3cnc4cc(F)cnc43)cc2s1 [Example 197, 6-((6-fluoro-3H-imidazo[4,5-b]pyridin-3-yl)methyl)-N-(2-methoxyphenyl)benzo[d]thiazol-2-amine]	400 to 1500	> 500	100 to 500	5 to 20	> 5000	50 to 500	–	–	–	–	–	–
O[C@@H]1CCCC[C@H]1Nc1nc2ccc(Cn3cnc4cc(C5=CCNCC5)ccc43)cc2s1 [Example 225, (1R,2R)-2-((6-((5-(1,2,3,6-tetrahydropyridin-4-yl)-1H-benzo[d]imidazol-1-yl)methyl)benzo[d]thiazol-2-yl)amino)cyclohexanol]	400 to 1500	50 to 200	≤ 100	≤ 5	200 to 1000	≤ 50	–	–	–	–	–	–
(1R,2R)-1-((6-((4-(1-methyl-1H-pyrazol-4-yl)-1H-imidazol-1-yl)methyl)benzo[d]thiazol-2-yl)amino)-2,3-dihydro-1H-inden-2-ol or (1R,2R)-1-((6-((5-(1-methyl-1H-pyrazol-4-yl)-1H-imidazol-1-yl)methyl)benzo[d]thiazol-2-yl)amino)-2,3-dihydro-1H-inden-2-ol [Example 32]	–	–	–	–	–	–	> 1500	> 500	> 2000	> 50	200 to 1000	> 2000
